Experimental data from patent US20260274814A1, “THIENYL COMPOUNDS FOR THE TREATMENT OF A CENTRAL NERVOUS SYSTEM DISEASE OR DISORDER” (Coreterra Therapeutics, Inc., priority 2023, published 2026).
Structures can show the parent of a compound that is named as a salt.

System: mice
Assay: Neuropharmacological Assay (SmartCube): automated behavioral signature of compound-treated mice compared with a database of reference drug classes
Type: in vivo
Details: for minimal effective dose: Mus musculus, ip, minimal effective dose: dose having 45% or more total activity in SmartCube, i.p., if only one dose tested, that dose is shown, read-out: MED; for AD / AG / AN / AP / AX / CE / HL / MS / PS / SH / UK: SmartCube class probability, 3.0 mg/kg i.p., 15 min before test
Method in brief: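 i.p. dosing 15 min pre-test (NMP/PEG/propylene glycol vehicle); 3 doses, 3.0 mg/kg reported. Output = class-match probability per behavioural effect. Potency runs 0.3, 1, 3, 10 mpk (range adjusted as needed); MED = dose with ≥45% total activity.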

| SMILES | minimal effective dose [mg/kg] | AD | AG | AN | AP | AX | CE | HL | MS | PS | SH | UK |
| --- | --- | --- | --- | --- | --- | --- | --- | --- | --- | --- | --- | --- |
| CNC1(C)CCc2scc(C(F)(F)F)c2C1 (stereo not drawn) [Compound 190, N, 5-dimethyl-3-(trifluoromethyl)-6,7-dihydro-4H-benzothiophen-5-amine hydrochloride] | > 3 | ND (^ <4%) | ND (^ <4%) | ND (^ <4%) | ND (^ <4%) | ND (^ <4%) | ND (^ <4%) | ND (^ <4%) | ND (^ <4%) | ND (^ <4%) | ND (^ <4%) | + (≥4%) |
| NC1CCc2csc(C3CC3)c2C1 (stereo not drawn) [Compound 193, 3-cyclopropyl-4,5,6,7-tetrahydro-2-benzothiophen-5-amine hydrochloride] | > 3 | ND (^ <4%) | ND (^ <4%) | + (≥4%) | ND (^ <4%) | ND (^ <4%) | ND (^ <4%) | ND (^ <4%) | ND (^ <4%) | ND (^ <4%) | ND (^ <4%) | ND (^ <4%) |
| CNC1CCc2sc(C)c(F)c2C1 (stereo not drawn) [Compound 196, 3-fluoro-N, 2-dimethyl-4,5,6,7-tetrahydrobenzothiophen-5-amine hydrochloride] | 3 | ND (^ <4%) | ND (^ <4%) | ND (^ <4%) | ND (^ <4%) | ND (^ <4%) | ND (^ <4%) | ND (^ <4%) | ND (^ <4%) | ND (^ <4%) | ND (^ <4%) | + (≥4%) |
| CNC1CCc2sc(C)cc2C1 (stereo not drawn) [Compound 197, N, 2-dimethyl-4,5,6,7-tetrahydrobenzothiophen-5-amine hydrochloride] | 3 | ND (^ <4%) | ND (^ <4%) | ND (^ <4%) | ND (^ <4%) | ND (^ <4%) | ND (^ <4%) | ND (^ <4%) | ND (^ <4%) | ND (^ <4%) | ND (^ <4%) | +++ (≥49%) |
| Cc1scc2c1CCC(C)(N)C2 (stereo not drawn) [Compound 200, 1,5-dimethyl-6,7-dihydro-4H-2-benzothiophen-5-amine hydrochloride] | 3 | ND (^ <4%) | ND (^ <4%) | ++ (≥24%) | ND (^ <4%) | ND (^ <4%) | ND (^ <4%) | + (≥4%) | ND (^ <4%) | ++ (≥24%) | ND (^ <4%) | ND (^ <4%) |
| CNC1CCc2scc(C3CC3)c2C1 (stereo not drawn) [Compound 201, 3-cyclopropyl-N-methyl-4,5,6,7-tetrahydrobenzothiophen-5-amine hydrochloride] | 3 | ND (^ <4%) | ND (^ <4%) | ND (^ <4%) | ND (^ <4%) | + (≥4%) | ND (^ <4%) | ND (^ <4%) | ND (^ <4%) | ND (^ <4%) | ND (^ <4%) | ++ (≥24%) |
| CNC1COc2c(sc(C)c2C)C1 (stereo not drawn) [Compound 202, N, 2,3-trimethyl-6,7-dihydro-5H-thieno[3,2-b]pyran-6-amine hydrochloride] | 3 | + (≥4%) | ND (^ <4%) | ND (^ <4%) | ++ (≥24%) | ++ (≥24%) | ND (^ <4%) | ND (^ <4%) | ND (^ <4%) | ND (^ <4%) | ND (^ <4%) | ND (^ <4%) |
| Cc1sc(F)c2c1CC(N)CC2 (stereo not drawn) [Compound 203, 1-fluoro-3-methyl-4,5,6,7-tetrahydro-2-benzothiophen-5-amine hydrochloride] | 3 | ND (^ <4%) | ND (^ <4%) | ND (^ <4%) | ND (^ <4%) | ND (^ <4%) | ND (^ <4%) | ND (^ <4%) | ND (^ <4%) | ND (^ <4%) | ND (^ <4%) | +++ (≥49%) |
| N#Cc1scc2c1CC(N)CC2 (stereo not drawn) [Compound 204, 6-amino-4,5,6,7-tetrahydro-2-benzothiophene-1-carbonitrile hydrochloride] | 3 | ND (^ <4%) | ND (^ <4%) | ND (^ <4%) | ++++ (≥74%) | ND (^ <4%) | ND (^ <4%) | ND (^ <4%) | ND (^ <4%) | ND (^ <4%) | ND (^ <4%) | ND (^ <4%) |
| NC1CCc2scc(C3CC3)c2C1 (stereo not drawn) [Compound 205, 3-cyclopropyl-4,5,6,7-tetrahydrobenzothiophen-5-amine hydrochloride] | > 3 | ND (^ <4%) | ND (^ <4%) | ND (^ <4%) | ND (^ <4%) | ND (^ <4%) | ND (^ <4%) | ND (^ <4%) | ND (^ <4%) | ND (^ <4%) | ND (^ <4%) | ++ (≥24%) |
| CNC1CCc2scc(C3CCC3)c2C1 (stereo not drawn) [Compound 206, 3-cyclobutyl-N-methyl-4,5,6,7-tetrahydrobenzothiophen-5-amine hydrochloride] | 3 | ND (^ <4%) | ND (^ <4%) | ND (^ <4%) | ND (^ <4%) | ND (^ <4%) | ND (^ <4%) | ND (^ <4%) | ND (^ <4%) | ND (^ <4%) | ND (^ <4%) | ++ (≥24%) |
| CCc1csc2c1CC(NC)CC2 (stereo not drawn) [Compound 207, 3-ethyl-N-methyl-4,5,6,7-tetrahydrobenzothiophen-5-amine hydrochloride] | > 3 | ND (^ <4%) | ND (^ <4%) | ND (^ <4%) | ND (^ <4%) | ND (^ <4%) | ND (^ <4%) | ND (^ <4%) | ND (^ <4%) | ND (^ <4%) | ND (^ <4%) | + (≥4%) |
| CCc1csc2c1CC(N)CC2 (stereo not drawn) [Compound 208, 3-ethyl-4,5,6,7-tetrahydrobenzothiophen-5-amine hydrochloride] | > 3 | ND (^ <4%) | ND (^ <4%) | ND (^ <4%) | ND (^ <4%) | ND (^ <4%) | ND (^ <4%) | ND (^ <4%) | ND (^ <4%) | ND (^ <4%) | ND (^ <4%) | + (≥4%) |
| NC1CCc2c(F)csc2C1 (stereo not drawn) [Compound 209, 3-fluoro-4,5,6,7-tetrahydrobenzothiophen-6-amine hydrochloride] | < 3 | ++ (≥24%) | ND (^ <4%) | ND (^ <4%) | + (≥4%) | +++ (≥49%) | + (≥4%) | ND (^ <4%) | ND (^ <4%) | ND (^ <4%) | ND (^ <4%) | ND (^ <4%) |
| Cc1sc2c(c1F)CC(N)CC2 (stereo not drawn) [Compound 214, 3-fluoro-2-methyl-4,5,6,7-tetrahydrobenzothiophen-5-amine hydrochloride] | > 3 | ND (^ <4%) | ND (^ <4%) | ND (^ <4%) | ND (^ <4%) | ND (^ <4%) | ND (^ <4%) | ND (^ <4%) | ND (^ <4%) | ND (^ <4%) | ND (^ <4%) | + (≥4%) |
| NC1COc2c(Cl)csc2C1 (stereo not drawn) [Compound 215, 3-chloro-6,7-dihydro-5H-thieno[3,2-b]pyran-6-amine hydrochloride] | 3 | ND (^ <4%) | ND (^ <4%) | ND (^ <4%) | + (≥4%) | +++ (≥49%) | ND (^ <4%) | ND (^ <4%) | ND (^ <4%) | ND (^ <4%) | ND (^ <4%) | ND (^ <4%) |
| NC1CCc2sc(Cl)cc2C1 (stereo not drawn) [Compound 216, 2-chloro-4,5,6,7-tetrahydrobenzothiophen-5-amine hydrochloride] | > 3 | ND (^ <4%) | ND (^ <4%) | ND (^ <4%) | ND (^ <4%) | ++ (≥24%) | ND (^ <4%) | ND (^ <4%) | ND (^ <4%) | ND (^ <4%) | ND (^ <4%) | + (≥4%) |
| NC1CCc2c(Cl)csc2C1 (stereo not drawn) [Compound 217, 3-chloro-4,5,6,7-tetrahydrobenzothiophen-6-amine hydrochloride] | < 3 | ND (^ <4%) | ND (^ <4%) | ND (^ <4%) | + (≥4%) | ++ (≥24%) | ND (^ <4%) | + (≥4%) | ND (^ <4%) | ++ (≥24%) | ND (^ <4%) | + (≥4%) |
